We go through 43 molecules from patent US20170280720A1, “ARGININE […] INHIBITORS AND USES THEREOF” (EPIZYME, INC., priority 2014, published 2017).

This test addresses T1, Human CARM1 (PRMT4) (Homo sapiens, UniProt Q86X55).
T1 construct: Flag-CARM1-His; made in house; host or cells: HEK 293F cells (BacMam baculovirus, pFastBacMam)
T1 sequence (Q86X55 2-585 isoform Q86X55-1): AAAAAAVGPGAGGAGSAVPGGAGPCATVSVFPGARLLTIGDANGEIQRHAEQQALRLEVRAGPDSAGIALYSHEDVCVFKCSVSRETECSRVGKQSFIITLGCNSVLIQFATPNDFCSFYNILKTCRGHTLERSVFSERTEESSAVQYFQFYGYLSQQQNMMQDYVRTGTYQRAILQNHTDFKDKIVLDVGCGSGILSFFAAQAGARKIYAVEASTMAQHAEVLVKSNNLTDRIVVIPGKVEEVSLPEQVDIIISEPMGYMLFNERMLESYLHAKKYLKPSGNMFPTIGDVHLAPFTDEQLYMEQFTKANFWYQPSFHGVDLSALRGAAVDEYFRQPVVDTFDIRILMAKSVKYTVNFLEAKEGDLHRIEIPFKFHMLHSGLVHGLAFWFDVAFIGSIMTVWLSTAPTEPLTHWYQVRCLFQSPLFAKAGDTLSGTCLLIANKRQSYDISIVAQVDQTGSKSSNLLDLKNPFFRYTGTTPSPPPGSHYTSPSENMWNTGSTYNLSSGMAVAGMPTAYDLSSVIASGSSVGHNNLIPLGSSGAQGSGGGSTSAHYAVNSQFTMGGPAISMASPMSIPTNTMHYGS
In words: CARM1 biochemical assay (3H-SAM Flashplate, peptide substrate). The settings on record: read-out: CARM1_ IC50. The source says:
S-adenosylmethionine (SAM), S-adenosylhomocysteine (SAH), bicine, Tween20, dimethylsulfoxide (DMSO), bovine skin gelatin (BSG), sodium butyrate and Tris(2-carboxyethyl)phosphine hydrochloride solution (TCEP) were purchased from Sigma-Aldrich at the highest level of purity possible. ^3H-SAM was purchase from American Radiolabeled Chemicals with a specific activity of 80 Ci/mmol. 384-well streptavidin Flashplates were purchased from PerkinElmer.
Peptide representative of human histone H3 residues 16-30 was synthesized with an N-terminal linker-affinity tag motif and a C-terminal amide cap by 21st Century Biochemicals. The peptide was purified by high-performance liquid chromatography (HPLC) to greater than 95% purity and confirmed by liquid chromatography mass spectrometry (LC-MS). The sequence was Biot-Ahx-[…]-amide and contained a monomethylated arginine at position 26 (SEQ ID NO.: 14).
Human CARM1 (PRMT4) (NM_199141.1) transcript clone was amplified from an HEK 293 cDNA library, incorporating a flanking 5′ sequence encoding a FLAG tag ([…]) (SEQ ID NO.: 6) fused directly to Ala 2 of CARM1 and 3′ sequence encoding a hexa His sequence ([…]) (SEQ ID NO.: 15) fused directly to Ser 608. The gene sequence encoding isoform1 containing a deletion of amino acids 539-561 was amplified subsequently and subcloned into pFastBacMam (Viva Biotech).
Recombinant baculovirus were generated according to Bac-to-Bac kit instructions (Life Technologies). […] Infections were carried out at 37° C. for 48 hours, harvested by centrifugation, and stored at −80° C. for purification.
Column was washed with 500 mM NaCl in buffer A and Flag-CARM1-His was eluted with 200 ug/ml FLAG peptide in buffer A. Pooled fractions were dialyzed in 20 mM Tris, 150 mM NaCl, 5% glycerol and 1 mM DTT, pH 7.8. The purity of recovered protein was 94.
General Procedure for CARM1 Enzyme Assays on Peptide Substrates.
The assays were all performed in a buffer consisting of 20 mM Bicine (pH=7.6), 1 mM TCEP, 0.005% BSG, and 0.002% Tween 20, prepared on the day of use. Compounds in 100% DMSO (1 ul) were spotted into a polypropylene 384-well V-bottom plates (Greiner) using a Platemate Plus outfitted with a 384-channel head (Thermo Scientific). DMSO (1 ul) was added to Columns 11, 12, 23, 24, rows A-H for the maximum signal control and 1 ul of SAH, a known product and inhibitor of CARM1, was added to columns 11, 12, 23, 24, rows I-P for the minimum signal control. A cocktail (40 ul) containing the CARM1 enzyme was added by Multidrop Combi (Thermo-Fisher). The compounds were allowed to incubate with CARM1 for 30 min at room temperature, then a cocktail (10 ul) containing ^3H-SAM and peptide was added to initiate the reaction (final volume=51 ul). The final concentrations of the components were as follows: CARM1 was 0.25 nM, ^3H-SAM was 30 nM, peptide was 250 nM, SAH in the minimum signal control wells was 1 mM, and the DMSO concentration was 2%. The assays were stopped by the addition of non-radiolabeled SAM (10 ul) to a final concentration of 300 uM, which dilutes the ^3H-SAM to a level where its incorporation into the peptide substrate is no longer detectable. 50 ul of the reaction in the 384-well polypropylene plate was then transferred to a 384-well Flashplate and the biotinylated peptides were allowed to bind to the streptavidin surface for at least 1 hour before being washed once with 0.1% Tween20 in a Biotek ELx405 plate washer. The plates were then read in a PerkinElmer TopCount plate reader to measure the quantity of ^3H-labeled peptide bound to the Flashplate surface, measured as disintegrations per minute (dpm) or alternatively, referred to as counts per minute (cpm).
Where dpm=disintegrations per minute, cmpd=signal in assay well, and min and max are the respective minimum and maximum signal controls.
Where top and bottom are the normally allowed to float, but may be fixed at 100 or 0 respectively in a 3-parameter fit. […]

Regarding `CNCCN(C)Cc1cccc(-c2cc(C(=O)N[C@@H](C)c3ccccc3)c3cn(Cc4ccccc4)nc3n2)c1` [Compound 213], the IC50 came out at 25.4 nM.
For the molecule `CNCCN(C)Cc1cccc(-c2cc(C(=O)N3CCOCC3)c3cnn(C(C)C)c3n2)c1` [Compound 321], the concentration for half-maximal inhibition (IC50) was found to be 453 nM.
To `CNCCN(C)Cc1cccc(-c2cc(N3CCCCC3)c3cnn(C(C)C)c3n2)c1` [Compound 177] belongs 7.35 nM.
For `CNCCN(C)Cc1cccc(-c2cc(C(=O)NCC3CCOCC3)c3cnn(Cc4cccnc4)c3n2)c1` [Compound 317], the half-maximal inhibitory concentration (IC50) amounted to 386 nM.
On to `CNCCN(C)Cc1cccc(-c2cc(C(=O)N[C@@H](C)c3ccccc3)c3cn(Cc4cccnc4)nc3n2)c1` [Compound 236], for which the half-inhibitory concentration (IC50) was found to be 46 nM.
As to `CC(C)n1cc2c(C(=O)NC3CCOCC3)cc(-c3cccc(CN(C)CCN)c3)nc2n1` [Compound 308], the IC50 was 254 nM.
Then `CNCCN(C)Cc1cccc(-c2cc(C(=O)NCC3CCOCC3)c3cnn(CC4CC4)c3n2)c1` [Compound 285], with 139 nM; and `Cc1c(C(=O)NCC2CCOCC2)cc(-c2cccc(CN(C)CCN)c2)cc1N(C)CC1CC1` [Compound 267], with 75.2 nM.
Then `CNCCN(C)Cc1cccc(-c2cc(C(=O)N3CCSCC3)c3cnn(C(C)C)c3n2)c1` [Compound 322], with 456 nM; and `CNCCN(C)Cc1cccc(-c2cc(N(CC3CC3)CC3CC3)c3cnn(C(C)C)c3n2)c1` [Compound 218], with 30.9 nM.
To `CNCCN(C)Cc1cccc(-c2cc(C(=O)N(C)CC(F)(F)F)c3cnn(C(C)C)c3n2)c1` [Compound 310] belongs 283 nM; to `CNCCN(C)Cc1cccc(-c2cc(C(=O)N[C@@H](C)c3ccccc3)c3cnn(Cc4cccnc4)c3n2)c1` [Compound 249], 57.3 nM.
For `CNCCN(C)Cc1cccc(-c2cc(C(=O)N[C@@H](C)c3ccccc3)c3cn(Cc4ccncc4)nc3n2)c1` [Compound 216], the half-maximal inhibitory concentration (IC50) was determined as 29.9 nM.
To `CNCCN(C)Cc1cccc(-c2cc(OCC3CC3)c3cnn(C(C)C)c3n2)c1` [Compound 203] belongs 19.2 nM; to `CNCCN(C)Cc1cccc(-c2cc(-c3ccncc3)c3cnn(C(C)C)c3n2)c1` [Compound 196], 14.3 nM.
On to `CNCCN(C)Cc1cccc(-c2cc(C(O)C3CCOCC3)c3cnn(C(C)C)c3n2)c1` (stereo not shown) [Compound 315], for which the 50% inhibitory concentration (IC50) turned out to be 368 nM.
On to `CNCCN(C)Cc1cccc(-c2cc(C(=O)NC(C)c3ccccc3)c3cn(C4CCOCC4)nc3n2)c1` (stereo not shown) [Compound 312], for which the concentration for half-maximal inhibition (IC50) is 311 nM.
Regarding `CNCCN(C)Cc1cccc(-c2cc(C(=O)NCC3CCOCC3)c3cnn(Cc4ccccn4)c3n2)c1` [Compound 318], the 50% inhibitory concentration (IC50) came out at 398 nM.
For `CNCCN(C)Cc1cccc(-c2cc(C(=O)N3CCC(OC)C3)c3cnn(C(C)C)c3n2)c1` (stereo not shown) [Compound 302], the half-inhibitory concentration (IC50) is 233 nM.
Turning to `CNCCN(C)Cc1cccc(-c2cc(C(=O)N(C)C3CCOCC3)c3cnn(C(C)C)c3n2)c1` [Compound 320], the IC50 was determined as 410 nM.
Then `CNCCN(C)Cc1cccc(-c2cc(C(=O)NCC3CCOCC3)c3cnn(CC#N)c3n2)c1` [Compound 306], with 243 nM; and `CNCCN(C)Cc1cccc(-c2cc(-c3cn[nH]c3)c3cnn(C(C)C)c3n2)c1` [Compound 192], with 13.1 nM.
Then `CNCCN(C)Cc1cccc(-c2cc(C(=O)N3CCC(F)C3)c3cnn(C(C)C)c3n2)c1` (stereo not shown) [Compound 313], with 312 nM; and `CNCCN(C)Cc1cccc(-c2cc(C(=O)NC(C)c3ccccc3)c3cnn(C4CCOCC4)c3n2)c1` (stereo not shown) [Compound 248], with 55.5 nM.
To `CNCCN(C)Cc1cccc(-c2cc(Nc3ccncc3)c3cnn(C(C)C)c3n2)c1` [Compound 191] belongs 12.9 nM; to `CNCCN(C)Cc1cccc(-c2cc(-c3c(C)n[nH]c3C)c3cnn(C(C)C)c3n2)c1` [Compound 200], 16.7 nM; to `CNCCN(C)Cc1cccc(-c2cc(C(=O)N[C@@H](C)c3ccccc3)c3cnn(Cc4ccccn4)c3n2)c1` [Compound 225], 38.1 nM.
`CC(C)n1ncc2c(C(=O)NCC3COC3)cc(-c3cccc(CN(C)CCN)c3)nc21` [Compound 204]: the IC50 turned out to be 19.2 nM.
To `CNCCN(C)Cc1cccc(-c2cc(NCC3CC3)c3cnn(C(C)C)c3n2)c1` [Compound 226] belongs 39.5 nM.
For the molecule `CCOC(=O)c1cc(-c2cccc(CN(C)CCNC)c2)nc2c1cnn2CC(F)(F)F` [Compound 316], the IC50 stood at 379 nM.
Then `CNCCN(C)Cc1cccc(-c2cc(-c3csc(C)n3)c3cnn(C(C)C)c3n2)c1` [Compound 178], with 7.51 nM; and `CNCCN(C)Cc1cccc(-c2cc(C(=O)N3Cc4ccccc4C3)c3cnn(C(C)C)c3n2)c1` [Compound 291], with 168 nM; and `CNCCN(C)Cc1cccc(-c2cc(C(=O)N3CCC(F)(F)C3)c3cnn(C(C)C)c3n2)c1` [Compound 299], with 203 nM.
Then `CNCCN(C)Cc1cccc(-c2cc(C(=O)NC3CCOCC3)c3cnn(CC4CC4)c3n2)c1` [Compound 314], with 334 nM.
Then `CNCCN(C)Cc1cccc(-c2cc(C(=O)NCc3ccccc3Cl)c3cnn(C(C)C)c3n2)c1` [Compound 268], with 77.3 nM; and `CNCCN(C)Cc1cccc(-c2cc(C(=O)N[C@@H](C)c3ccccc3)c3cn(Cc4ccccn4)nc3n2)c1` [Compound 221], with 32.6 nM; and `CNCCN(C)Cc1cccc(-c2cc(CN(C)OC)c3cnn(C(C)C)c3n2)c1` [Compound 264], with 74.1 nM.
As for `CNCCN(C)Cc1cccc(-c2cc(C(=O)N[C@@H](C)c3ccccc3)c3cn(Cc4ccccc4F)nc3n2)c1` [Compound 305], the half-inhibitory concentration (IC50) amounted to 240 nM.
Then `Cc1cc(C)c(CNC(=O)c2cc(-c3cc(CN(C)CCN)ccc3C)cc3c2cnn3C(C)C)c(=O)[nH]1` [Compound 389], with 232 nM.
To `Cc1cc(CNC(=O)c2cc(-c3cccc(CN(C)CCN)c3)nc3c2cnn3C(C)C)no1` [Compound 184] belongs 11.7 nM.
To `Cc1cc(C)c(CNC(=O)c2cc(-c3ccc(CN(C)CCN4CCCC4)cc3)nc3c2cnn3C(C)C)c(=O)[nH]1` [Compound 364] belongs 50000 nM; to `Cc1cc(C)c(CNC(=O)c2cc(-c3cccc(CNCCN(C)C)c3)nc3c2cnn3C(C)C)c(=O)[nH]1` [Compound 369], 501 nM.
As for `CNCCN(C)Cc1cccc(-c2cc(C(=O)NCC3COC3)c3cnn(C(C)C)c3n2)c1` [Compound 219], the IC50 stood at 31.6 nM.
